These are literature values, as cited in patent US7608126B1, “Method for horticulture plant rejuvenation” (priority 2006, dated 2009).

Each structure is given as a SMILES string.

For the molecule `C[C@]12CC[C@H](O)CC1=CC[C@@H]1[C@@H]2CC[C@]2(C)C(=O)CC[C@@H]12` [DHEA, dehydroepiandrosterone], the solubility in water entry is reported as “not very soluble in water”.
